Reference: patent US20240208912A1 (Mirati Therapeutics, Inc., priority 2021, published 2024)
Like-named read-outs stand apart in the source and are kept apart here.

Tests used:
PRMT5/MEP50 complex = biological target: T1, PRMT5/MEP50 complex (Homo sapiens, UniProt O14744); test: PRMT5:MEP50 HotSpot Assay (full-length histone H2A substrate, plus and minus MTA); type: biochemical; settings: IC50 + 2 μM MTA, in the presence of 2 μM MTA
T1 construct: purchased Reaction Biology Corporation
Method in brief: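 Radiometric HotSpot format using recombinant full-length histone H2A as substrate, run with and without MTA. Reactions were stopped and spotted onto filter paper. Tritiated H2A was quantified by scintillation counting.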

[1] = test system: HCT116 homozygous MTAP knockout cells; test: Proliferation assay (CellTiter-Glo, 10 days) in HCT116 homozygous MTAP knockout cells; type: cell-based; settings: CellTiter-Glo after 10 days of treatment, read-out: Proliferation IC50 (nM) HCT116 MTAP_KO
Method in brief: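 MTAP-null HCT116 clone made by CRISPR/Cas9 knockout of both alleles, tested beside parental cells. Cells dosed the day after seeding, split 1:10 on day 6 into fresh medium with the same compound level, and read on day 11 by CellTiter-Glo. IC50 taken after 10 days of exposure.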

T1 sequence (O14744 2-637 limits assumed): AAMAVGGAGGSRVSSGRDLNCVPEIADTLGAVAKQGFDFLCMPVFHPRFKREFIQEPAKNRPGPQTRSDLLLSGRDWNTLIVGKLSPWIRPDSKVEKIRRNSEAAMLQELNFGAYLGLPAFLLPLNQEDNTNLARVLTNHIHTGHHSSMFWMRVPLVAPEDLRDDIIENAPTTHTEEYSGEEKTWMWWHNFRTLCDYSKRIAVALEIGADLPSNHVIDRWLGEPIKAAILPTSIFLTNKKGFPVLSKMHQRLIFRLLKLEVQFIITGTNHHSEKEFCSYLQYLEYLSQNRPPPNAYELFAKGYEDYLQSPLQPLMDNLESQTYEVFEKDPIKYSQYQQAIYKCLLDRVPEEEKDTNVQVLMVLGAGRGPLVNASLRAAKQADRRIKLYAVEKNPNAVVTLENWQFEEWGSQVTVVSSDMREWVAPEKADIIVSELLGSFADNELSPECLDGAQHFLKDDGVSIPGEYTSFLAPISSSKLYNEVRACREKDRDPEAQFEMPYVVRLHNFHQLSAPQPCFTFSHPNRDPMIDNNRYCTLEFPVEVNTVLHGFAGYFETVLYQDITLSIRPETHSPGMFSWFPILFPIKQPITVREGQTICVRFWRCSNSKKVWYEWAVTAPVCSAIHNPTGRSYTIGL
T1 sequence (Q9BQA1 2-342 partner limits assumed): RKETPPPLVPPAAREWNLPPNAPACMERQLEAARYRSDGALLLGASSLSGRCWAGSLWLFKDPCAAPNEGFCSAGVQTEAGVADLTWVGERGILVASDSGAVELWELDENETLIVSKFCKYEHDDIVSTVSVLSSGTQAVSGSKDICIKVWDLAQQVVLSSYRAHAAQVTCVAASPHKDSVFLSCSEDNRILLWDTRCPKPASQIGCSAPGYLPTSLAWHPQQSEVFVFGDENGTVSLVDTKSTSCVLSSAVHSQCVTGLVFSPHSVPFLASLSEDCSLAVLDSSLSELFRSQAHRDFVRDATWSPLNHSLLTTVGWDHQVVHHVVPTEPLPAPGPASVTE

SMILES | IC50 (PRMT5/MEP50 complex) [µM] | IC50 ([1]; Homo sapiens, HCT-116, 240 h) [nM] | IC50 [1] [nM]
Cn1ncc(-c2ccc3c(=O)[nH]nc(CN)c3c2)c1-c1sc2ccncc2c1C#N [Example 4-274, 2-[4-[4-(aminomethyl)-1-oxo-2H-phthalazin-6-yl]-2-methyl-pyrazol-3-yl]thieno[3,2-c]pyridine-3-carbonitrile] | 1.07 | 3380 | 
Cn1ncc(-c2ccc3c(=O)[nH]nc(CN)c3c2)c1-c1c(F)cc2c(c1C#N)OCCC2 (atropisomer, axis not shown; (M)) [Example 16-38, (M)-7-[4-[4-(aminomethyl)-1-oxo-2H-phthalazin-6-yl]-2-methyl-pyrazol-3-yl]-6-fluoro-chromane-8-carbonitrile] | 0.0838 |  | 39
Cn1ncc(-c2ccc3c(=O)[nH]nc(C4(N)CC4)c3c2)c1-c1sc2ccccc2c1C#N [Example 9-8, 2-(4-(4-(1-aminocyclopropyl)-1-oxo-1,2-dihydrophthalazin-6-yl)-1-methyl-1H-pyrazol-5-yl)benzo[b]thiophene-3-carbonitrile] | > 10 | 10000 | 
N#Cc1c(-c2c(-c3ccc4c(=O)[nH]nc(CN)c4c3)cnn2C(F)F)sc2ccccc12 [Example 19-3, 2-(4-(4-(aminomethyl)-1-oxo-1,2-dihydrophthalazin-6-yl)-1-(difluoromethyl)-1H-pyrazol-5-yl)benzo[b]thiophene-3-carbonitrile] | 0.308 | 149 | 
Cn1ncc(-c2cc(Cl)c3c(=O)[nH]nc(CN)c3c2)c1-c1c(F)c(Cl)cc(OC2CC2)c1C#N (single isomer, unassigned) [Example 16-28, (M)-2-[4-[4-(aminomethyl)-8-chloro-1-oxo-2H-phthalazin-6-yl]-2-methyl-pyrazol-3-yl]-4-chloro-6-(cyclopropoxy)-3-fluoro-benzonitrile] | 0.081 |  | 10
Cn1ncc(-c2ccc3c(=O)[nH]nc(CN)c3c2)c1-c1sc2c(OCC(F)F)cccc2c1C#N [Example 4-269, 2-(4-(4-(aminomethyl)-1-oxo-1,2-dihydrophthalazin-6-yl)-1-methyl-1H-pyrazol-5-yl)-7-(2,2-difluoroethoxy)benzo[b]thiophene-3-carbonitrile] | 0.0582 | 182 | 
Cn1ncc(-c2ccc3c(=O)[nH]nc(CN)c3c2)c1-c1c(C#N)cc2ccccc2c1F (single isomer, unassigned) [Example 16-54, (M)-3-[4-[4-(aminomethyl)-1-oxo-2H-phthalazin-6-yl]-2-methyl-pyrazol-3-yl]-4-fluoro-naphthalene-2-carbonitrile] | 0.00919 |  | 82
Cn1ncc(-c2ccc3c(=O)[nH]nc(CN)c3c2)c1-c1c(C#N)c(OC2CC2)c2ccccc2c1Cl (single isomer, unassigned) [Example 16-24, (M)-3-[4-[4-(aminomethyl)-1-oxo-2H-phthalazin-6-yl]-2-methyl-pyrazol-3-yl]-4-chloro-1-(cyclopropoxy)naphthalene-2-carbonitrile] | 0.0372 |  | 61
Cn1ncc(-c2cc(O)c3c(=O)[nH]nc(CN)c3c2)c1-c1sc2ccccc2c1C#N [Example 15-6, 2-(4-(4-(aminomethyl)-8-hydroxy-1-oxo-1,2-dihydrophthalazin-6-yl)-1-methyl-1H-pyrazol-5-yl)benzo[b]thiophene-3-carbonitrile] | 0.235 | 138 | 
Cc1cc(-c2cnn(C)c2-c2c(F)cc3ncc(Cl)cc3c2C#N)cc2c(CN)n[nH]c(=O)c12 (single isomer, unassigned) [Example 16-49, (P)-6-[4-[4-(aminomethyl)-8-methyl-1-oxo-2H-phthalazin-6-yl]-2-methyl-pyrazol-3-yl]-3-chloro-7-fluoro-quinoline-5-carbonitrile] | 0.166 |  | 80
Cc1c(F)c(-c2c(-c3cc(Cl)c4c(=O)[nH]nc(CN)c4c3)cnn2C)c(C#N)c2ccccc12 (single isomer, unassigned) [Example 16-60, (M)-2-[4-[4-(aminomethyl)-8-chloro-1-oxo-2H-phthalazin-6-yl]-2-methyl-pyrazol-3-yl]-3-fluoro-4-methyl-naphthalene-1-carbonitrile] | 0.0147 |  | 39
Cc1cnc2c(C#N)c(-c3c(-c4ccc5c(=O)[nH]nc(CN)c5c4)cnn3C)c(F)c(C)c2c1 (atropisomer, axis not shown; (P)) [Example 16-93, (P)-7-(4-(4-(aminomethyl)-1-oxo-1,2-dihydrophthalazin-6-yl)-1-methyl-1H-pyrazol-5-yl)-6-fluoro-3,5-dimethylquinoline-8-carbonitrile] | 0.821 |  | 3290
Cc1cc(OC2CC2)c(C#N)c(-c2c(-c3cc(Cl)c4c(=O)[nH]nc(CN)c4c3)cnn2C)c1F (single isomer, unassigned) [Example 16-26, (M)-2-[4-[4-(aminomethyl)-8-chloro-1-oxo-2H-phthalazin-6-yl]-2-methyl-pyrazol-3-yl]-6-(cyclopropoxy)-3-fluoro-4-methyl-benzonitrile] | 0.00843 |  | 17

The remaining lines, values ahead:

IC50 (PRMT5/MEP50 complex) [µM] | IC50 ([1]; Homo sapiens, HCT-116, 240 h) [nM] | IC50 [1] [nM] | SMILES
0.0524 |  | 41 | C[C@H]1C[C@@H]1Oc1ccc(F)c(-c2c(-c3ccc4c(=O)[nH]nc(CN)c4c3)cnn2C)c1C#N (single isomer, unassigned) [Example 16-68]
0.084 | 5 |  | Cc1cnc2cc(F)c(-c3c(-c4ccc5c(=O)[nH]nc(CN)c5c4)cnn3C)c(C#N)c2c1 (atropisomer, axis not shown; (M)) [Example 16-35, (M)-6-[4-[4-(aminomethyl)-1-oxo-2H-phthalazin-6-yl]-2-methyl-pyrazol-3-yl]-7-fluoro-3-methyl-quinoline-5-carbonitrile]
1.65 | 4220 |  | CC(C)n1ncc(-c2ccc3c(=O)[nH]nc(CN)c3c2)c1-c1sc2ccccc2c1C#N [Example 19-2, 2-(4-(4-(aminomethyl)-1-oxo-1,2-dihydrophthalazin-6-yl)-1-isopropyl-1H-pyrazol-5-yl)benzo[b]thiophene-3-carbonitrile]
0.0364 |  | 17 | Cn1ncc(-c2ccc3c(=O)[nH]nc(CN)c3c2)c1-c1c(F)ccc(CC2CC2)c1C#N (single isomer, unassigned) [Example 16-30, (M)-2-(4-(4-(aminomethyl)-1-oxo-1,2-dihydrophthalazin-6-yl)-1-methyl-1H-pyrazol-5-yl)-6-(cyclopropylmethyl)-3-fluorobenzonitrile]
> 1 | 1860 |  | Cc1c(F)c(-c2c(-c3cc(Cl)c4c(=O)[nH]nc(CN)c4c3)cnn2C)c(C#N)c2ncc(Cl)cc12 (atropisomer, axis not shown; (P)) [Example 16-97, (P)-7-(4-(4-(aminomethyl)-8-chloro-1-oxo-1,2-dihydrophthalazin-6-yl)-1-methyl-1H-pyrazol-5-yl)-3-chloro-6-fluoro-5-methylquinoline-8-carbonitrile]
0.173 |  | 1070 | Cc1cc(OC2CC2)c(C#N)c(-c2c(-c3ccc4c(=O)[nH]nc(CN)c4c3)cnn2C)c1F (single isomer, unassigned) [Example 16-19, (P)-2-[4-[4-(aminomethyl)-1-oxo-2H-phthalazin-6-yl]-2-methyl-pyrazol-3-yl]-6-(cyclopropoxy)-3-fluoro-4-methyl-benzonitrile]
